Results from US8466167B2, “Compounds and compositions as TLR activity modulators” (IRM LLC, priority 2008, dated 2013).
Like-named read-outs stand apart in the source and are kept apart here.

How the values were obtained:
human TLR7 = target: T1, human TLR7 (Homo sapiens, UniProt Q9NYK1); assay: Reporter gene assay, HEK293-TLR7 (NF-kB-driven luciferase); format: cell-based
T1 construct: expressed in transfected cells; host or cells: HEK 293
T1 sequence (Q9NYK1 27-1049): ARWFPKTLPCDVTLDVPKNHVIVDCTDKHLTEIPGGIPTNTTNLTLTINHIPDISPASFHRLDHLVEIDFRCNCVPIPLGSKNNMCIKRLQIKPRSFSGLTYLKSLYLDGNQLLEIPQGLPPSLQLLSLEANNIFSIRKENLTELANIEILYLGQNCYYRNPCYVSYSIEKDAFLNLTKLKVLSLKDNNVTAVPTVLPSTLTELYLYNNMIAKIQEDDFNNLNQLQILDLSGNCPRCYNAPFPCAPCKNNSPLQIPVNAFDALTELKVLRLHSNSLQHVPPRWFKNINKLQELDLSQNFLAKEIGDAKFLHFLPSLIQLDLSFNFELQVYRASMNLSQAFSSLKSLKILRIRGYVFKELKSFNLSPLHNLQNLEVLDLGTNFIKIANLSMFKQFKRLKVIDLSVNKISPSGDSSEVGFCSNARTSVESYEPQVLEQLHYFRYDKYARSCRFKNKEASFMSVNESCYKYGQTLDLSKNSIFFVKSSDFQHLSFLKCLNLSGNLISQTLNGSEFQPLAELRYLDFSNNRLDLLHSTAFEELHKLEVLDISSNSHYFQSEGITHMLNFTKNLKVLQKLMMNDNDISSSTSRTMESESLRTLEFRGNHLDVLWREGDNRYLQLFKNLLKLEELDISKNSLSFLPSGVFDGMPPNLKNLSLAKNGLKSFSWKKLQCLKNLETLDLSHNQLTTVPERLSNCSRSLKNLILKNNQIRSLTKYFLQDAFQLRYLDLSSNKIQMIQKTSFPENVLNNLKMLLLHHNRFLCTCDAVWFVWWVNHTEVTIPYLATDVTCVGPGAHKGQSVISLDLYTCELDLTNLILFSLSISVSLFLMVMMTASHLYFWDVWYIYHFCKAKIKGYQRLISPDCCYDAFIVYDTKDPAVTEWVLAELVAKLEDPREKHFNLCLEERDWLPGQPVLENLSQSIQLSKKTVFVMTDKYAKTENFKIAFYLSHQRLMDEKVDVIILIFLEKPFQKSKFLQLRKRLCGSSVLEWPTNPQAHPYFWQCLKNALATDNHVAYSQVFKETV
Description: (§1) Human embryonic kidney 293 (HEK 293) cells are stably transfected with human TLR7 or TLR8 and an NF-kB-driven luciferase reporter vector (pNifty-Luciferase). As a control assay, normal Hek293 transfected with pNifty-Luc are used. Cells are cultured in DMEM supplemented with 2 mM L-glutamine, 10% heart inactivated FBS, 1% penicillin and streptomycin, 2 μg/ml puromycin (InvivoGen #ant-pr-5) and 5 μg/ml of blasticidin (Invitrogen #46-1120). Bright-Glo™ Luciferase assay buffer and substrate are supplied by Promega #E263B and #E264B (assay substrate and buffer respectively). 384 well clear-bottom plates are supplied by Greiner bio-one (#789163-G) and are GNF custom bar-coded plates.
(§2) Cells are plated at 25,000 cells/well in 384-well plates in a final volume of 50 μl of media. Cells are allowed to adhere to the plates after overnight (18 hours) culture at 37° C. 5% CO2. Serially diluted experimental and positive control compounds are then dispensed to each well and incubated for 7 hours at 37° C. 5% CO2. Cells stimulated with DMSO alone also serve as negative controls. After the incubation, 30 μl of the pre-mix assay buffer and substrate buffer are added to each well according to manufacturer's instructions. The luminescence signal is read on a CLIPR machine with an integration time of 20 seconds per plate.
(§3) Dose response curves are generated for each compound and EC50 values were determined as the concentration that gives 50% of the maximal signal.

human TLR8 = target: T2, human TLR8 (Homo sapiens, UniProt Q9NR97); assay: Reporter gene assay, HEK293-TLR8 (NF-kB-driven luciferase); format: cell-based; settings: TLR-8 stimulation; read-out: Human TLR-8 EC50
T2 construct: expressed in transfected cells; host or cells: HEK 293
T2 sequence (Q9NR97 27-1041): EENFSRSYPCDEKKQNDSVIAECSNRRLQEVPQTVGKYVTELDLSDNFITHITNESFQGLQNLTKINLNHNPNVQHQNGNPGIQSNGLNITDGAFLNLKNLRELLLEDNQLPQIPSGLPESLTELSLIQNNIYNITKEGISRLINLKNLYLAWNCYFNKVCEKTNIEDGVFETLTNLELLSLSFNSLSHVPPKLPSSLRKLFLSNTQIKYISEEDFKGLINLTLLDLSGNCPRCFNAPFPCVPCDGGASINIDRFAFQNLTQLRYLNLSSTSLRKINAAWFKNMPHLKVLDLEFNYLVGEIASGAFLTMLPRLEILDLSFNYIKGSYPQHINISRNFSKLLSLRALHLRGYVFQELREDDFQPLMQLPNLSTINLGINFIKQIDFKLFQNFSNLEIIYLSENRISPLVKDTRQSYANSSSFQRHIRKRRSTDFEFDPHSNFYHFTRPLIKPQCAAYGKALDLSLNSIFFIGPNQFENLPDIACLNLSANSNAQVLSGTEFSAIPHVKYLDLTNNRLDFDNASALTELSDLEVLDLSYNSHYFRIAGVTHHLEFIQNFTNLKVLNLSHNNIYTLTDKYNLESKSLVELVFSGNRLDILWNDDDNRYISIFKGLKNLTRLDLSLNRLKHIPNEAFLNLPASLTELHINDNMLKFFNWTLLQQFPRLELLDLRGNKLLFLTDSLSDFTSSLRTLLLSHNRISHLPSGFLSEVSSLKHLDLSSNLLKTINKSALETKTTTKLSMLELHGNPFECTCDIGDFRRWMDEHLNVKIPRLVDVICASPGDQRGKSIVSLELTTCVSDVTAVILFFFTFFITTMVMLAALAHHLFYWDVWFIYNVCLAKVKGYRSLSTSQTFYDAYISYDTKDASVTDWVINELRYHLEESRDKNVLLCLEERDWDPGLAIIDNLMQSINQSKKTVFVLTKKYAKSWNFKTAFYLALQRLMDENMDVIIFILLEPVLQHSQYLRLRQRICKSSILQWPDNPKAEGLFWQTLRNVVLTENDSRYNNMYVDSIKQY
Description: as §1, §2, §3

[1] = TLR-7 stimulation, read-out: Human TLR-7 EC50

EC50 (human TLR7; [1]) [µM]	EC50 (human TLR8) [µM]	SMILES	other results
–	–	Nc1nc2ccccc2c2ccc(=O)[nH]c12 [Example 15, 5-aminobenzo[f][1,7]naphthyridin-3(4H)-one]	EC50 (human TLR7; HEK293-TLR7, read-out: EC50 in HEK293-TLR7 assay): 24.1 µM
0.107	–	Cc1ccc2c(c1)nc(N)c1ncc(CCc3ccc4[nH]ccc4c3)cc12 [Example 44, 2-(2-(1H-indol-5-yl)ethyl)-8-methylbenzo[f][1,7]naphthyridin-5-amine]	–
0.347	–	Cc1ccc2c(c1)nc(N)c1ncc(CCc3ccc(Oc4ccccc4)cc3)cc12 [Example 46, 8-methyl-2-(4-phenoxyphenethyl)benzo[f][1,7]naphthyridin-5-amine]	–
0.582	–	COC(=O)CCc1ccc(CCc2cnc3c(N)nc4cc(C)ccc4c3c2)cc1 [Example 61, methyl 3-(4-(2-(5-amino-8-methylbenzo[f][1,7]naphthyridin-2-yl)ethyl)phenyl)propanoate]	–
0.035	–	Cc1ccc2c(c1)nc(N)c1ncc(CCc3ccc(CCCO)cc3)cc12 [Example 62, 3-(4-(2-(5-amino-8-methylbenzo[f][1,7]naphthyridin-2-yl)ethyl)phenyl)propan-1-ol]	–
0.024	–	Cc1ccc2c(c1)nc(N)c1ncc(CCc3ccc(CCC(C)(C)O)cc3)cc12 [Example 63, 4-(4-(2-(5-amino-8-methylbenzo[f][1,7]naphthyridin-2-yl)ethyl)phenyl)-2-methylbutan-2-ol]	–
0.275	–	CCN1CCN(C(=O)c2ccc(CCc3cnc4c(N)nc5cc(C)ccc5c4c3)c(C)c2)CC1 [Example 126, (4-(2-(5-amino-8-methylbenzo[f][1,7]naphthyridin-2-yl)ethyl)-3-methylphenyl)(4-ethylpiperazin-1-yl)methanone]	–
0.213	–	CCCOC(=O)Oc1ccc(CCc2cnc3c(N)nc4cc(C)ccc4c3c2)cc1 [Example 138, 4-(2-(5-amino-8-methylbenzo[f][1,7]naphthyridin-2-yl)ethyl)phenyl propyl carbonate]	–
0.014	–	Cc1ccc2c(c1)nc(N)c1ncc(CCc3ccc(OCCN4CCOCC4)cc3C)cc12 [Example 147, 8-methyl-2-(2-methyl-4-(2-morpholinoethoxy)phenethyl)benzo[f][1,7]naphthyridin-5-amine]	–
–	15	Cc1ccc2c(c1)nc(N)c1ncc(CCc3ccc(CN4CCCC4)cc3)cc12 [Example 177, 8-methyl-2-(4-(pyrrolidin-1-ylmethyl)phenethyl)benzo[f][1,7]naphthyridin-5-amine]	–
0.562	–	COc1ccc(CCc2cnc3c(N)nc4cc(C)ccc4c3c2)cc1OC [Example 178, 2-(3,4-dimethoxyphenethyl)-8-methylbenzo[f][1,7]naphthyridin-5-amine]	–
–	11	Cc1ccc2c(c1)nc(N)c1ncc(CCc3ccc(C(C)NCCN(C)C)cc3)cc12 (centres unmarked) [Example 186, N^1-(1-(4-(2-(5-amino-8-methylbenzo[f][1,7]naphthyridin-2-yl)ethyl)phenyl)ethyl)-N^2,N^2-dimethylethane-1,2-diamine]	–
–	82	Cc1ccc2c(c1)nc(N)c1ncc(CCc3ccc(C(C)NCCC(=O)O)cc3)cc12 (centres unmarked) [Example 187, 3-(1-(4-(2-(5-amino-8-methylbenzo[f][1,7]naphthyridin-2-yl)ethyl)phenyl)ethylamino)propanoic acid]	–
–	> 100	Cc1ccc2c(c1)nc(N)c1ncc(CCc3ccc(C(C)N4CCN(C)CC4)cc3)cc12 (centres unmarked) [Example 188, 8-methyl-2-(4-(1-(4-methylpiperazin-1-yl)ethyl)phenethyl)benzo[f][1,7]naphthyridin-5-amine]	–
–	6.2	Cc1ccc2c(c1)nc(N)c1ncc(CCc3ccc(C(C)NC(C)CN(C)C)cc3)cc12 (centres unmarked) [Example 189, N^2-(1-(4-(2-(5-amino-8-methylbenzo[f][1,7]naphthyridin-2-yl)ethyl)phenyl)ethyl)-N^1,N^1-dimethylpropane-1,2-diamine]	–
–	4.3	Cc1ccc2c(c1)nc(N)c1ncc(CCc3ccc(C(C)NCCc4ccncc4)cc3)cc12 (centres unmarked) [Example 190, 8-methyl-2-(4-(1-(2-(pyridin-4-yl)ethylamino)ethyl)phenethyl)benzo[f][1,7]naphthyridin-5-amine]	–
–	6	CCN(CC)CCNC(C)c1ccc(CCc2cnc3c(N)nc4cc(C)ccc4c3c2)cc1 (centres unmarked) [Example 191, N^1-(1-(4-(2-(5-amino-8-methylbenzo[f][1,7]naphthyridin-2-yl)ethyl)phenyl)ethyl)-N^2,N^2-diethylethane-1,2-diamine]	–
–	24	Cc1ccc2c(c1)nc(N)c1ncc(CCc3ccc(C(C)N4CCC(C(=O)O)C4)cc3)cc12 (centres unmarked) [Example 193, 1-(1-(4-(2-(5-amino-8-methylbenzo[f][1,7]naphthyridin-2-yl)ethyl)phenyl)ethyl)pyrrolidine-3-carboxylic acid]	–
–	5.3	Cc1ccc2c(c1)nc(N)c1ncc(CCc3ccc(C(C)N4CCC(O)C4)cc3)cc12 (centres unmarked) [Example 195, 1-(1-(4-(2-(5-amino-8-methylbenzo[f][1,7]naphthyridin-2yl)ethyl)phenyl)ethyl)pyrrolidin-3-ol]	–
–	2.6	Cc1ccc2c(c1)nc(N)c1ncc(CCc3ccc(C(C)(C)N)cc3)cc12 [Example 196, 2-(4-(2-aminopropan-2-yl)phenethyl)-8-methylbenzo[f][1,7]naphthyridin-5-amine]	–
